No end group written: not given here. *: point of attachment. Biotin = O=C1N[C@H]2[C@H](CS[C@H]2CCCCC(=O)*)N1
System: human recombinant GST-CaN
Experiment: Peptide/CaN interaction assay (biotinylated peptides on streptavidin beads, GST-CaN pull-down, Western blot)
Type: binding
Settings: for percent of CaN recovered (signal for each/signal for CaN standard * 40%) / CaN binding (in words) / CaN binding lower than the PVIVIT peptide: Fig. 1H; for percent of CaN recovered (signal for each/signal for CaN standard * 40%): 10 μg N-terminally biotinylated peptide on streptavidin beads, 200 ng GST-CaN, 30 min, 4 °C, Western blot, mean (n=7; APP-17mer n=3); for Western blot data following CaN interaction with biotinylated peptides, (signal for each/signal for CaN standard) * 40%: biotinylated APP peptides, GST-CaN pull-down; for CaN binding relative to the APP (WT) peptide (in words): Fig. 4B, FAD mutant peptides
Excerpt: Recombinant rabbit monoclonal to APP (clone Y188; Abcam cat# ab32136; 1:5000 dilution), rabbit polyclonal to APLP1 (Proteintech cat # 12305-2-AP; 1:1000 dilution), and rabbit polyclonal to APLP2 (Proteintech cat # 15041-1-A; 1:500 dilution) were used to detect native APP family members on western blots or recombinant GFP-tagged APP family members as validation (see Fig. S1). A horseradish peroxidase (HRP)-conjugated goat anti-rabbit antibody (Sigma-Aldrich Cat# 12-348; 1:10,000 dilution) was used as secondary antibody for these western blots, while an HRP-conjugated mouse monoclonal antibody to GFP (Invitrogen cat # MA 515256HRP; 1:1000 dilution) was used to independently verify the expression of GFP or GFP-tagged APP family members. A mouse monoclonal antibody CaN (BD Biosciences Cat# 556350; 1:1000 dilution) was used for the detection of native and recombinant CaN on western blots and for co-immunoprecipitation and peptide-based interaction assays experiments, while nonspecific mouse IgG (Thermo Fisher Scientific Cat# 02-6502) was used as a control. An HRP-conjugated goat anti-mouse antibody (Sigma-Aldrich Cat# 12-349; 1:10,000 dilution) […] was used as secondary antibody for these western blots, while HRP-conjugated protein G (Sigma-Aldrich cat # 18-161; 1:5000 dilution) was used for the secondary detection of CaN in co-immunoprecipitation experiments. A mouse monoclonal anti-Flag antibody (Sigma-Aldrich Cat# F1804) was used for co-immunoprecipitations of recombinant APP family members, while an HRP-conjugated version of this antibody (Sigma-Aldrich Cat# A8592; 1:1000) was used for the detection on western blots.
The N-terminally biotinylated AKAP79(330-357) and Ht31peptides were synthesized by Biomolecules Midwest and used as positive and negative controls for CaN interaction as previously described ([20]).
Either PBS with fresh 0.1% Tween-20 and 0.1% bovine serum albumin added or a modified IP buffer (150 mM NaCl, 10 mM Hepes; 5 mM EDTA; pH 7.4) with fresh 0.5% CHAPSO and 0.1% bovine serum albumin was used for these assays. […] Streptavidin-coated dynabeads (20 μl; Invitrogen cat # 65601) were washed and then incubated with 10 μg biotinylated peptides for 15 min at 4 °C in 200 μl of buffer. Beads were washed rapidly (400 μl; 3×) to remove unbound peptide and then incubated with 200 ng human recombinant GST-CaN in 200 μl buffer for 30 min at 4 °C. Following three washes (400 μl; 5 min each), complexes were eluted in 40 μl 2× Laemmli buffer, and samples were separated by SDS-PAGE and analyzed by Western blotting as above. Blots were probed with the mouse monoclonal anti-CaN antibody followed by anti-mouse HRP for secondary detection and visualized by enhanced chemiluminescence and digitally acquired as above. For each blot, the intensity of each band was normalized to that of from the GST-CaN standard (80 ng). As this standard represented 40% of the 200 ng input, the ratio was multiplied by 40 to achieve the percent of CaN recovered.

| Substance | percent of CaN recovered (signal for each/signal for CaN standard * 40%) [%] | CaN binding (in words) | Western blot data following CaN interaction with biotinylated peptides, (signal for each/signal for CaN standard) * 40% (mean of n = 6) [%] | Western blot data following CaN interaction with biotinylated peptides, (signal for each/signal for CaN standard) * 40% (replicate 1) [%] | Western blot data following CaN interaction with biotinylated peptides, (signal for each/signal for CaN standard) * 40% (replicate 2) [%] | Western blot data following CaN interaction with biotinylated peptides, (signal for each/signal for CaN standard) * 40% (replicate 3) [%] | Western blot data following CaN interaction with biotinylated peptides, (signal for each/signal for CaN standard) * 40% (replicate 4) [%] | Western blot data following CaN interaction with biotinylated peptides, (signal for each/signal for CaN standard) * 40% (replicate 5) [%] | Western blot data following CaN interaction with biotinylated peptides, (signal for each/signal for CaN standard) * 40% (replicate 6) [%] | CaN binding lower than the PVIVIT peptide [%] | CaN binding relative to the APP (WT) peptide (in words) |
| --- | --- | --- | --- | --- | --- | --- | --- | --- | --- | --- | --- |
| AKAP79: N-terminally biotinylated peptide derived from the AKAP79 CaN-binding domain, positive control (Biotin-EESKRMEPIAIIITDTEISEFDVTKSKN) [reference compound] | 21.96 | – | – | – | – | – | – | – | – | – | – |
| GVVIATVIVITLVMLKK [APP-17mer] | 2.14 | minimal affinity for CaN | – | – | – | – | – | – | – | – | – |
| MAGPHIVIVITGPHEE [T639I, biotinylated APP peptide incorporating the FAD mutation T639I] | – | – | 54.45 | 94.68 | 40.64 | 44.78 | 37.21 | 55.66 | 53.70 | – | – |
| MAGPHSLIVLSGPHEE [APLP1] | 13.18 | – | – | – | – | – | – | – | – | ~80 | – |
| MAGPHTMIVITGPHEE [V640M, biotinylated APP peptide incorporating the FAD mutation V640M] | – | – | 42.81 | 69.77 | 35.90 | 61.53 | 25.01 | 31.86 | 32.78 | – | – |
| MAGPHTVFVITGPHEE [I641F, biotinylated APP peptide incorporating the FAD mutation I641F] | – | – | 22.96 | 23.46 | 18.34 | 34.56 | 13.72 | 12.91 | 34.77 | – | reduced substantially |
| MAGPHTVIFITGPHEE [V642F, biotinylated APP peptide incorporating the FAD mutation V642F] | – | – | 43.86 | 84.45 | 46.13 | 42.80 | 26.46 | 29.11 | 34.24 | – | – |
| MAGPHTVIIITGPHEE [V642I, biotinylated APP peptide incorporating the FAD mutation V642I] | – | – | 44.18 | 54.96 | 45.24 | 82.71 | 28.44 | 26.76 | 26.97 | – | – |
| MAGPHTVIVIPGPHEE [T644P, biotinylated APP peptide incorporating the FAD mutation T644P] | – | – | 4.71 | 0.13 | 8.45 | 2.14 | 4.28 | 3.74 | 9.51 | – | reliably reduced CaN binding |
| MAGPHTVIVISGPHEE [APLP2] | 42.75 | – | – | – | – | – | – | – | – | ~30 | – |
| MAGPHTVIVITGPHEE [APP] | 52.92 | nearly the same extent as the PVIVIT peptide | – | – | – | – | – | – | – | – | – |

— publication PMC11910330, “Familial Alzheimer’s disease mutations in amyloid precursor protein impair calcineurin signaling to NMDA receptors” (The Journal of Biological Chemistry, 2024)
